Assay results from publication PMC8855934 (Journal of medicinal chemistry, 2021).
Substitutions are numbered along the chain they refer to.

What was measured:
VCaP cell line = experiment: Cell growth inhibition in the VCaP cell line; type: cell-based, human
[1] = target: T1, AR double mutations (L702H and T878A) (Homo sapiens, UniProt P10275, L702H/T878A); details: MDA-PCa-2b, 24 h, Figure 7
T1 sequence (P10275 1-920 L702H/T878A): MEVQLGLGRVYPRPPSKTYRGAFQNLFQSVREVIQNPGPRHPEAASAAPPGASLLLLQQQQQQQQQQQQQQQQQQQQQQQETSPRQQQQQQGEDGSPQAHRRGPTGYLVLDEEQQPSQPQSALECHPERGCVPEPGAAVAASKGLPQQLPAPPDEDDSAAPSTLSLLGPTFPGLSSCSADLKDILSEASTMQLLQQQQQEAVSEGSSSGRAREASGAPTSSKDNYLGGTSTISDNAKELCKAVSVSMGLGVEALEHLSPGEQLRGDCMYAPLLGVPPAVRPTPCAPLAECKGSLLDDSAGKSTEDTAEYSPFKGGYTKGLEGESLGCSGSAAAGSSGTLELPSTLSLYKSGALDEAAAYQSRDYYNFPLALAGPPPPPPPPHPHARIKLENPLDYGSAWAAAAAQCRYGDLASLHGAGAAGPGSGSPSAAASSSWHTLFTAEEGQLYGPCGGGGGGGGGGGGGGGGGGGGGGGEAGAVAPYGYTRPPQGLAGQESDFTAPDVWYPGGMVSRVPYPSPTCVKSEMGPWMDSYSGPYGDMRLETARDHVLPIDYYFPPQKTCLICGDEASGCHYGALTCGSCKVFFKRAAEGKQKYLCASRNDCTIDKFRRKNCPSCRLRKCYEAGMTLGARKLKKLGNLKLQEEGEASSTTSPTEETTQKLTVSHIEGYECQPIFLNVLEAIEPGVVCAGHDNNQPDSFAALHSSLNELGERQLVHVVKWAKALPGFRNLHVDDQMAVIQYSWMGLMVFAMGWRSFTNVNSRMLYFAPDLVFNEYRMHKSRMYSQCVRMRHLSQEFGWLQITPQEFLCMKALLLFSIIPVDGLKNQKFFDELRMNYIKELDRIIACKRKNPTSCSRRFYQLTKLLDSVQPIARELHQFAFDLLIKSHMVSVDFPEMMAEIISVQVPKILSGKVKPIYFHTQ

AR T878A mutant protein = target: T2, AR T878A mutant protein (Homo sapiens, UniProt P10275, T878A)
T2 sequence (P10275 1-920 T878A): T1 sequence (P10275 1-920 L702H/T878A) with H702L

AR protein [2] = target: T3, AR protein (Homo sapiens, UniProt P10275); experiment: AR degradation in VCaP cell line; type: cell-based
T3 sequence (P10275 1-920): T1 sequence (P10275 1-920 L702H/T878A) with H702L, A878T

Pharmacokinetics in mice = type: in vivo; details: male, mouse, in vivo
[3] = Tissue distribution studies of ARD-2585 in mice bearing VCaP tumors; type: in vivo; details: male, SCID, mouse, po, 20 mg/kg
AR protein [4] = target: T3, AR protein; details: single oral administration 20 mg/kg, 6 and 24 h time-points, Western blotting
[5] = test system: AR protein (22Rvl cell line with F876L mutation); experiment: AR degradation in 22Rv1 cell line; type: cell-based, human; details: 22Rv1, 24 h

SMILES | times less potent than compounds 35 and 36 (cell growth inhibition) (VCaP cell line) | concentration as low as which AR protein level is reduced by >80% [1] [nM] | Dmax, AR degradation in LNCaP cell line (AR T878A mutant protein; LNCaP cell line (AR T878A), Western blotting, listed as ARD-2585) [%] | reduction of AR protein (mechanism study) (AR T878A mutant protein; LNCaP cells, 100 nM, 3 h treatment) | reduction of AR protein level (degradation kinetics) (AR T878A mutant protein; LNCaP, 1 h) | Dmax, AR degradation in VCaP cell line (AR protein [2]; VCaP cell line, 24 h treatment, Western blotting, listed as ARD-2585) [%] | reduction of AR protein (mechanism study) (AR protein [2]; VCaP cells, 100 nM, 3 h treatment) | reduction of AR protein level (degradation kinetics) (AR protein [2]; VCaP, 1 h) | Vd (Pharmacokinetics in mice; iv, 2 mg/kg) [L/kg] | clearance (Pharmacokinetics in mice; iv, 2 mg/kg) [mL/min/kg] | half-life (Pharmacokinetics in mice; iv, 2 mg/kg) [h] | AUC(0-t) (Pharmacokinetics in mice; po, 3 mg/kg) [ng·h/mL] | concentration at 6 h ([3]; plasma) [ng/mL] | concentration at 24 h ([3]; plasma) [ng/mL] | concentration at 24 h ([3]; prostate) [ng/g] | reduction of AR protein level in VCaP tumor tissue (AR protein [4]) | Dmax, AR degradation in 22Rv1 cell line [5] [%]
N#Cc1ccc(N[C@H]2CC[C@H](NC(=O)c3ccc(N4CCC(N5CCN(c6ccc7c(c6)C(=O)N(C6CCC(=O)NC6=O)C7=O)CC5)CC4)cc3)CC2)cc1Cl (stereo partly drawn) [Compound 34, N-(1R,4R)-4-(((3-Chloro-4-cyanophenyl)amino)cyclohexyl)-4-(4-(4-(2-(2,6-dioxopiperidin-3-yl)-1,3-dioxoisoindolin-5-yl)piperazin-1-yl)piperidin-1-yl)benzamide] | ~10 | – | – | – | – | – | – | – | – | – | – | – | – | – | – | – | –
CCCN(c1ccc(C#N)c(Cl)c1)[C@H]1CC[C@H](NC(=O)c2ccc(N3CCC(N4CCN(c5ccc6c(c5)C(=O)N(C5CCC(=O)NC5=O)C6=O)CC4)CC3)cc2)CC1 (stereo partly drawn) [Compound 37, N-(1R,4R)-4-(((3-Chloro-4-cyanophenyl)(propyl)amino)-cyclohexyl)-4-(4-(4-(2-(2,6-dioxopiperidin-3-yl)-1,3-dioxoisoindolin-5-yl)piperazin-1-yl)piperidin-1-yl)benzamide] | > 40 | – | – | – | – | – | – | – | – | – | – | – | – | – | – | – | –
CN(c1ccc(C#N)c(Cl)c1)[C@H]1CC[C@H](NC(=O)c2ccc(N3CCN(C4CN(c5ccc6c(c5)C(=O)N(C5CCC(=O)NC5=O)C6=O)C4)CC3)cc2)CC1 (stereo partly drawn) [Compound 43, N-(1R,4R)-4-(((3-Chloro-4-cyanophenyl)(methyl)amino)-cyclohexyl)-4-(4-(1-(2-(2,6-dioxopiperidin-3-yl)-1,3-dioxoisoindolin-5-yl)azetidin-3-yl)piperazin-1-yl)benzamide] | – | 1 | > 98 | effectively reduces | effectively reduce | > 98 | effectively reduces | effectively reduce | 1.8 to 2.1 | 3.33 to 5 | 5.5 to 7.5 | 8640 | 134 ± 98 | 214 ± 78 | 109 ± 23 | effective | > 95
